Patent US20230089014A1, “COMPOUND USED AS KINASE INHIBITOR AND USE THEREOF” (TYK MEDICINES (ZHENGZHOU), INC., priority 2020, published 2023)

Columns and labels:
Type in all cases: biochemical
EGFR A763_Y764insFHEA = EGFR A763_Y764insFHEA (Homo sapiens, UniProt P00533, INS763FHEA); test: Kinase activity assay (33P-ATP filter-binding) on EGFR exon 20 insertion mutant kinase A763_Y764insFHEA; conditions: for IC50: ATP at Km
EGFR D770-N771insNPG = EGFR D770-N771insNPG (Homo sapiens, UniProt P00533, INS770NPG); test: Kinase activity assay (33P-ATP filter-binding) on EGFR exon 20 insertion mutant kinase D770-N771insNPG; conditions: ATP at Km
Her2 A775-G776insYVMA = Her2 A775-G776insYVMA (Homo sapiens, UniProt P04626, INS775YVMA); test: Kinase activity assay (33P-ATP filter-binding) on Her2 exon 20 insertion mutant kinase A775-G776insYVMA; conditions: for IC50: ATP at Km
Chain of Her2 A775-G776insYVMA (P04626 with tags, fused parts or gaps INS775YVMA limits assumed): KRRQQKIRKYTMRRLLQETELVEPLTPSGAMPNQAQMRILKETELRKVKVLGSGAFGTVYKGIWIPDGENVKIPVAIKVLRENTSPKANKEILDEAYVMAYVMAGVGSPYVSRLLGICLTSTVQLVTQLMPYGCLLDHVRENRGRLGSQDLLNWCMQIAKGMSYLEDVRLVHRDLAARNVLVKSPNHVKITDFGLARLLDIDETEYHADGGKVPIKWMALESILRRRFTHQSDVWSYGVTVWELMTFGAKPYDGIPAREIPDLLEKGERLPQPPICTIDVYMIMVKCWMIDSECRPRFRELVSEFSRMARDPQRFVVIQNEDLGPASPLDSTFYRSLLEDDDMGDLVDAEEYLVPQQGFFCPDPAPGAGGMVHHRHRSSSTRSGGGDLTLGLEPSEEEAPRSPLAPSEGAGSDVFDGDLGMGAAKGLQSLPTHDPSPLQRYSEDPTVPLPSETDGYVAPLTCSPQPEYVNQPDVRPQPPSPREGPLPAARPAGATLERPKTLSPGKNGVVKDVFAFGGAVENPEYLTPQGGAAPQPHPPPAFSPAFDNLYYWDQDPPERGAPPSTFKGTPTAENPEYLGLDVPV

Row | IC50 (EGFR A763_Y764insFHEA) [nM] | IC50 (EGFR A763_Y764insFHEA; class symbols) [nM] | IC50 (EGFR D770-N771insNPG) [nM] | IC50 (EGFR D770-N771insNPG; class symbols) [nM] | IC50 (Her2 A775-G776insYVMA) [nM] | IC50 (Her2 A775-G776insYVMA; class symbols) [nM] | activity relative to that of poziotinib (EGFR A763_Y764insFHEA; EGFR exon 20 insertion mutant kinase, mutant not specified) | inhibitory activity on Her2 insertion mutant kinase relative to that of poziotinib (Her2 A775-G776insYVMA) | Structure (SMILES)
1 | 6.68 | 4 to 40 | 1.61 | < 4 |  |  |  |  | C=CC(=O)N1CC2CN(c3cc4c(Nc5ccc(Cl)c(Cl)c5F)ncnc4cc3OC)CC2C1 (stereo not drawn) [Example 1]
2 | 3.03 | < 4 | 1.65 | < 4 |  |  |  |  | COc1cc2ncnc(Nc3ccc(Cl)c(Cl)c3F)c2cc1N1CCCC1 [Example 2]
3 | 1.32 | < 4 | 0.513 | < 4 | 2.61 | < 4 | 2-3 times |  | C=CC(=O)N1CC(C(F)(F)c2cc3c(Nc4ccc(Cl)c(Cl)c4F)ncnc3cc2OC)C1 [Example 3]
4 | 11.8 | 4 to 40 | 3.04 | < 4 |  |  |  |  | C=CC(=O)N1CC(C(=O)c2cc3c(Nc4ccc(Cl)c(Cl)c4F)ncnc3cc2OC)C1 [Example 4]
5 | 2.19 | < 4 | 1.54 | < 4 | 1.02 | < 4 |  | about 4 times | C=CC(=O)N1CCC(C(F)(F)c2cc3c(Nc4ccc(Cl)c(Cl)c4F)ncnc3cc2OC)CC1 [Example 5]
6 | 16.2 | 4 to 40 | 4.51 | 4 to 40 |  |  |  |  | C=CC(=O)N1CCC(C(=O)c2cc3c(Nc4ccc(Cl)c(Cl)c4F)ncnc3cc2OC)CC1 [Example 6]
7 | 4.04 | 4 to 40 | 0.833 | < 4 | 1.84 | < 4 |  |  | C=CC(=O)N1CC2CC(Oc3cc4c(Nc5ccc(Cl)c(Cl)c5F)ncnc4cc3OC)CC2C1 (stereo not drawn) [Example 7]
8 |  | 4 to 40 |  | 4 to 40 |  |  |  |  | C=CC(=O)N1C2CC(Sc3cc4c(Nc5ccc(Cl)c(Cl)c5F)ncnc4cc3OC)CC1C2 (stereo not drawn) [Example 8]
9 |  | 4 to 40 |  | 4 to 40 |  | 4 to 40 |  |  | C=CC(=O)N1CC2CC1CC2C(=O)c1cc2c(Nc3ccc(Cl)c(Cl)c3F)ncnc2cc1OC (stereo not drawn) [Example 9]
10 |  | < 4 |  | < 4 |  |  |  |  | C=CC(=O)N1CC2C(C1)C2Oc1cc2c(Nc3ccc(Cl)c(Cl)c3F)ncnc2cc1OC (stereo not drawn) [Example 10]
11 |  | 4 to 40 |  | 4 to 40 |  | 4 to 40 |  |  | C=CC(=O)N1C2CCC1CC(C(=O)c1cc3c(Nc4ccc(Cl)c(Cl)c4F)ncnc3cc1OC)C2 (stereo not drawn) [Example 11]
12 |  | 4 to 40 |  | < 4 |  | < 4 |  |  | C=CC(=O)N1CC2(CC(Oc3cc4c(Nc5ccc(Cl)c(Cl)c5F)ncnc4cc3OC)C2)C1 [Example 13]
13 |  | < 4 |  | < 4 |  | < 4 |  |  | C=CC(=O)N1C[C@H]2C[C@H](Oc3cc4c(Nc5ccc(Cl)c(Cl)c5F)ncnc4cc3OCCOC)C[C@H]2C1 [Example 16]
14 |  | 4 to 40 |  | < 4 |  | < 4 |  |  | C=CC(=O)N1C[C@H]2C[C@H](Oc3cc4c(Nc5ccc(Cl)c(Cl)c5F)ncnc4cc3OCCCN3CCOCC3)C[C@H]2C1 [Example 17]
15 |  |  |  |  | 4.79 | 4 to 40 |  |  | C=CC(=O)N1CCC(Oc2cc3c(Nc4ccc(Cl)c(Cl)c4F)ncnc3cc2OC)CC1 [Poziotinib, reference compound]
